Paper PMC8398451, “Molecular Engineering of Curcumin, an Active Constituent of Curcuma longa L. (Turmeric) of the Family Zingiberaceae with Improved Antiproliferative Activity” (Plants, 2021)

Legend:
Assay type in all cases: cell-based, Human
[1] = test system: TK-10; assay: NCI antiproliferative SRB assay, Renal Cancer panel
[2] = test system: CNS Cancer cell line panel; assay: NCI antiproliferative assay, panel summary
[3] = test system: NCI-H23; assay: NCI antiproliferative SRB assay, Non-Small Cell Lung Cancer panel
[4] = test system: OVCAR-5; assay: NCI antiproliferative SRB assay, Ovarian Cancer panel
[5] = test system: MALME-3M; assay: NCI antiproliferative SRB assay, Melanoma panel
[6] = test system: Colon Cancer cell line panel; assay: NCI antiproliferative assay, panel summary
[7] = test system: SR; assay: NCI antiproliferative SRB assay, Leukemia panel
[8] = test system: ACHN; assay: NCI antiproliferative SRB assay, Renal Cancer panel
[9] = test system: OVCAR-4; assay: NCI antiproliferative SRB assay, Ovarian Cancer panel
[10] = test system: PC-3; assay: NCI antiproliferative SRB assay, Prostate Cancer panel
[11] = test system: NCI-H226; assay: NCI antiproliferative SRB assay, Non-Small Cell Lung Cancer panel
[12] = test system: HOP-62; assay: as above
[13] = test system: T-47D; assay: NCI antiproliferative SRB assay, Breast Cancer panel
[14] = test system: SK-OV-3; assay: NCI antiproliferative SRB assay, Ovarian Cancer panel
[15] = test system: CCRF-CEM; assay: NCI antiproliferative SRB assay, Leukemia panel
[16] = test system: HT29; assay: NCI antiproliferative SRB assay, Colon Cancer panel
[17] = test system: SF-268; assay: NCI antiproliferative SRB assay, CNS Cancer panel
[18] = test system: SN 12C; assay: NCI antiproliferative SRB assay, Renal Cancer panel
[19] = test system: SNB-75; assay: NCI antiproliferative SRB assay, CNS Cancer panel
[20] = test system: Renal Cancer cell line panel; assay: NCI antiproliferative assay, panel summary
[21] = test system: MCF7; assay: NCI antiproliferative SRB assay, Breast Cancer panel
[22] = test system: K-562; assay: NCI antiproliferative SRB assay, Leukemia panel
[23] = test system: SW-620; assay: NCI antiproliferative SRB assay, Colon Cancer panel
[24] = test system: SF-539; assay: NCI antiproliferative SRB assay, CNS Cancer panel
[25] = Homo sapiens, 5-dose 0.01-100 µM
[26] = Homo sapiens, 5-dose 0.01-100 µM, read-out: LC50 (the source's name)
[27] = Homo sapiens, 5-dose assay, read-out: Sub Panel MID b (mean GI50 of panel)
[28] = Homo sapiens, T47D, 5-dose 0.01-100 µM

COc1cc(/C=C/c2cc(/C=C/c3ccc(O)c(OC)c3)n(C(=O)Nc3ccc(C(F)(F)F)cc3)n2)ccc1O [3c]
TGI ([1]; 5-dose 0.01-100 µM): 14.8 µM
GI50 [1, 25]: 4.13 µM
CC50 [1, 26]: 59.4 µM
%GI ([1]; one dose 10 µM): 22.31%
GP (growth percent) ([1]; one dose 10 µM): 77.69
Mean % GI ([2]; 10 µM): 53.38%
Selectivity Ratio (MID a:MID b) ([2]; 5-dose assay): 1.02
GI50 [2, 27]: 2.78 µM
TGI ([3]; 5-dose 0.01-100 µM): 6.48 µM
GI50 [3, 25]: 2.13 µM
CC50 [3, 26]: > 100 µM
%GI ([3]; one dose 10 µM): 48.71%
GP (growth percent) ([3]; one dose 10 µM): 51.29
TGI ([4]; 5-dose 0.01-100 µM): 4.97 µM
GI50 [4, 25]: 2.16 µM
CC50 [4, 26]: 15.2 µM
GP (growth percent) ([4]; one dose 10 µM): 115.18
TGI ([5]; 5-dose 0.01-100 µM): 8.40 µM
GI50 [5, 25]: 2.89 µM
CC50 [5, 26]: 32.6 µM
%GI ([5]; one dose 10 µM): 47.73%
GP (growth percent) ([5]; one dose 10 µM): 52.27
Mean % GI ([6]; 10 µM): 73.05%
Selectivity Ratio (MID a:MID b) ([6]; 5-dose assay): 1.31
GI50 [6, 27]: 2.17 µM
TGI ([7]; 5-dose 0.01-100 µM): >100 µM
GI50 [7, 25]: 1.48 µM
CC50 [7, 26]: > 100 µM
%GI ([7]; one dose 10 µM): 86.79%
GP (growth percent) ([7]; one dose 10 µM): 13.21
TGI ([8]; 5-dose 0.01-100 µM): 7.08 µM
GI50 [8, 25]: 2.48 µM
CC50 [8, 26]: > 100 µM
GP (growth percent) ([8]; one dose 10 µM): 65.82
TGI ([9]; 5-dose 0.01-100 µM): 52.7 µM
GI50 [9, 25]: 3.51 µM
CC50 [9, 26]: > 100 µM
%GI ([9]; one dose 10 µM): 23.29%
GP (growth percent) ([9]; one dose 10 µM): 76.71
TGI ([10]; 5-dose 0.01-100 µM): 13.5 µM
GI50 [10, 25]: 3.21 µM
CC50 [10, 26]: > 100 µM
%GI ([10]; one dose 10 µM): 61.97%
GP (growth percent) ([10]; one dose 10 µM): 38.03
TGI ([11]; 5-dose 0.01-100 µM): 27.6 µM
GI50 [11, 25]: 7.29 µM
CC50 [11, 26]: 91.7 µM
%GI ([11]; one dose 10 µM): 17.33%
GP (growth percent) ([11]; one dose 10 µM): 82.67
TGI ([12]; 5-dose 0.01-100 µM): 16.2 µM
GI50 [12, 25]: 3.6 µM
CC50 [12, 26]: > 100 µM
%GI ([12]; one dose 10 µM): 37.13%
GP (growth percent) ([12]; one dose 10 µM): 62.87
TGI ([13]; 5-dose 0.01-100 µM): 39.0 µM
GI50 [13, 28]: 2.81 µM
LC50 (lethal concentration, 50% cell kill) [13, 28]: > 100 µM
%GI ([13]; one dose 10 µM): 52.60%
GP (growth percent) ([13]; one dose 10 µM): 47.40
TGI ([14]; 5-dose 0.01-100 µM): 66.7 µM
GI50 [14, 25]: 4.02 µM
CC50 [14, 26]: > 100 µM
%GI ([14]; one dose 10 µM): 33.91%
GP (growth percent) ([14]; one dose 10 µM): 66.09
GI50 [15, 25]: 2.63 µM
CC50 [15, 26]: > 100 µM
%GI ([15]; one dose 10 µM): 96.58%
GP (growth percent) ([15]; one dose 10 µM): 3.42
TGI ([16]; 5-dose 0.01-100 µM): 4.13 µM
GI50 ([16]; Homo sapiens, HT-29, 5-dose 0.01-100 µM): 2.02 µM
CC50 ([16]; Homo sapiens, HT-29, 5-dose 0.01-100 µM, read-out: LC50 (the source's name)): 8.44 µM
%GI ([16]; one dose 10 µM): 96.50%
GP (growth percent) ([16]; one dose 10 µM): 3.50
TGI ([17]; 5-dose 0.01-100 µM): 15.4 µM
GI50 [17, 25]: 2.8 µM
CC50 [17, 26]: > 100 µM
%GI ([17]; one dose 10 µM): 62.88%
GP (growth percent) ([17]; one dose 10 µM): 37.12
TGI ([18]; 5-dose 0.01-100 µM): 9.90 µM
GI50 ([18]; Homo sapiens, SN12C, 5-dose 0.01-100 µM): 2.73 µM
CC50 ([18]; Homo sapiens, SN12C, 5-dose 0.01-100 µM, read-out: LC50 (the source's name)): > 100 µM
%GI ([18]; one dose 10 µM): 63.08%
GP (growth percent) ([18]; one dose 10 µM): 36.92
TGI ([19]; 5-dose 0.01-100 µM): 66.0 µM
GI50 [19, 25]: 2.99 µM
CC50 [19, 26]: > 100 µM
%GI ([19]; one dose 10 µM): 28.20%
GP (growth percent) ([19]; one dose 10 µM): 71.80
GI50 ([20]; Homo sapiens, read-out: Sub Panel MID b (mean GI50 of panel)): 3.06 µM
Mean % GI ([20]; Renal Cancer panel, 10 µM): 46.37%
Selectivity Ratio (MID a:MID b) ([20]; Renal Cancer panel, 5-dose assay): 0.93
TGI ([21]; 5-dose 0.01-100 µM): 10.7 µM
GI50 [21, 25]: 1.97 µM
CC50 [21, 26]: 72 µM
%GI ([21]; one dose 10 µM): 77.08%
GP (growth percent) ([21]; one dose 10 µM): 22.92
TGI ([22]; 5-dose 0.01-100 µM): >100 µM
GI50 ([22]; Homo sapiens, K562, 5-dose 0.01-100 µM): 2.53 µM
CC50 ([22]; Homo sapiens, K562, 5-dose 0.01-100 µM, read-out: LC50 (the source's name)): > 100 µM
%GI ([22]; one dose 10 µM): 90.55%
GP (growth percent) ([22]; one dose 10 µM): 9.45
TGI ([23]; 5-dose 0.01-100 µM): 5.90 µM
GI50 [23, 25]: 2.56 µM
CC50 [23, 26]: 33.6 µM
%GI ([23]; one dose 10 µM): 82.00%
GP (growth percent) ([23]; one dose 10 µM): 18.00
TGI ([24]; 5-dose 0.01-100 µM): 7.45 µM
GI50 [24, 25]: 2.37 µM
CC50 [24, 26]: 56 µM
%GI ([24]; one dose 10 µM): 70.99%
GP (growth percent) ([24]; one dose 10 µM): 29.01
